# Like-named read-outs stand apart in the source and are kept apart here.
# Columns and labels:
# Type in all cases: in vivo
# wild oat (Avena fatua) = assay: Test D postemergence plant response; settings: for pest or weed control at 31 g/ha: 31 g ai/ha; for pest or weed control at 62 g/ha: 62 g ai/ha
# Description: (§1) At the same time, plants selected from these crop and weed species and also kochia (Kochia scoparia), wild oat (Avena fatua), and chickweed (common chickweed, Stellaria media) were planted in pots containing Redi-Earth® planting medium (Scotts Company, 14111 Scottslawn Road, Marysville, Ohio 43041) comprising spaghnum peat moss, vermiculite, wetting agent and starter nutrients and treated with postemergence applications of test chemicals formulated in the same manner. Plants ranged in height from 2 to 18 cm (1- to 4-leaf stage) for postemergence treatments. Treated plants and controls were maintained in a greenhouse for 13 to 15 days, after which time all species were compared to controls and visually evaluated. Plant response ratings, summarized in Table D, are based on a scale of 0 to 100 where 0 is no effect and 100 is complete control. A dash (-) response means no test result.
# [1] = test system: chickweed (common chickweed, Stellaria media); assay: Test D postemergence plant response; settings: for pest or weed control at 31 g/ha: 31 g ai/ha; for pest or weed control at 62 g/ha: 62 g ai/ha
# Description: as §1
# kochia (Kochia scoparia) = assay: Test D postemergence plant response; settings: for pest or weed control at 31 g/ha: 31 g ai/ha; for pest or weed control at 62 g/ha: 62 g ai/ha
# Description: as §1
# [2] = test system: small-flower umbrella sedge (Cyperus difformis); assay: Test C flooded paddy test plant response; settings: Cyperus difformis; Flood, 250 g ai/ha; scale of 0 to 100 where 0 is no effect and 100 is complete control; 13 to 15 days; read-out: Sedge, Umbrella plant response rating
# Summary of the method: (§2)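 Scale 0 (no effect) to 100 (complete control), assigned visually versus controls after 13–15 d greenhouse. Application: directly to paddy water, 3 cm flood depth kept constant, 2-leaf stage.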
# [3] = test system: ducksalad (Heteranthera limosa); assay: Test C flooded paddy test plant response; settings: Heteranthera limosa; Flood, 250 g ai/ha; scale of 0 to 100 where 0 is no effect and 100 is complete control; 13 to 15 days; read-out: Ducksalad plant response rating
# Summary of the method: as §2
# [4] = test system: barnyardgrass (Echinochloa crus-galli); assay: Test C flooded paddy test plant response; settings: Echinochloa crus-galli; Flood, 250 g ai/ha; scale of 0 to 100 where 0 is no effect and 100 is complete control; 13 to 15 days; read-out: Barnyardgrass plant response rating
# Summary of the method: as §2
# rice (Oryza sativa) = assay: Test C flooded paddy test plant response; settings: Oryza sativa; Flood, 250 g ai/ha; scale of 0 to 100 where 0 is no effect and 100 is complete control; 13 to 15 days; read-out: Rice plant response rating
# Summary of the method: as §2
# [5] = test system: barnyardgrass (Echinochloa crus-galli); assay: Test B pre-/postemergence plant response; settings: Echinochloa crus-galli, 240 h, read-out: Plant response rating, Barnyardgrass; for pest or weed control at 1000 g/ha: 1000 g ai/ha; for pest or weed control at 125 g/ha: 125 g ai/ha; for pest or weed control at 500 g/ha: 500 g ai/ha
# Summary of the method: (§3)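 Visual injury rating, 0 (no effect) to 100 (complete control), vs untreated controls after ~10 d greenhouse. Pre: directed soil spray after planting in loam/sand. Post: plants 2–10 cm, 1–2 leaf stage. Compound in non-phytotoxic solvent plus surfactant.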
# corn (Zea mays) = assay: Test B pre-/postemergence plant response; settings: Zea mays, 240 h; for Corn plant response rating (crop injury, 0 = no effect, 100 = complete kill) at 1000 g/ha: 1000 g ai/ha; for Corn plant response rating (crop injury, 0 = no effect, 100 = complete kill) at 125 g/ha: 125 g ai/ha; for Corn plant response rating (crop injury, 0 = no effect, 100 = complete kill) at 500 g/ha: 500 g ai/ha
# Summary of the method: as §3
# [6] = test system: pigweed (Amaranthus retroflexus); assay: Test B pre-/postemergence plant response; settings: Amaranthus retroflexus, 240 h, read-out: Plant response rating, Pigweed; for pest or weed control at 1000 g/ha: 1000 g ai/ha; for pest or weed control at 125 g/ha: 125 g ai/ha; for pest or weed control at 500 g/ha: 500 g ai/ha
# Summary of the method: as §3
# [7] = test system: giant foxtail (Setaria faberii); assay: Test B pre-/postemergence plant response; settings: Setaria faberi, 240 h, read-out: Plant response rating, Foxtail, Giant; for pest or weed control at 1000 g/ha: 1000 g ai/ha; for pest or weed control at 125 g/ha: 125 g ai/ha; for pest or weed control at 500 g/ha: 500 g ai/ha
# Summary of the method: as §3
# [8] = test system: wheat (Triticum aestivum); assay: Test B pre-/postemergence plant response; settings: Triticum aestivum, 240 h, read-out: Plant response rating, Wheat; for plant injury at 1000 g/ha: 1000 g ai/ha; for plant injury at 125 g/ha: 125 g ai/ha; for plant injury at 500 g/ha: 500 g ai/ha
# Summary of the method: as §3
# [9] = Avena fatua, post-emergence, scale 0 to 100 (0 no effect, 100 complete control), read-out: Oat, Wild plant response rating
# [10] = Avena fatua, post-emergence, scale 0 to 100, 0 no effect, 100 complete control, read-out: Plant response rating, Oat, Wild
# [11] = Stellaria media, post-emergence, scale 0 to 100 (0 no effect, 100 complete control), read-out: Chickweed plant response rating
# [12] = Stellaria media, post-emergence, scale 0 to 100, 0 no effect, 100 complete control, read-out: Plant response rating, Chickweed
# [13] = Bassia scoparia, post-emergence, scale 0 to 100 (0 no effect, 100 complete control), read-out: Kochia plant response rating
# [14] = Bassia scoparia, post-emergence, scale 0 to 100, 0 no effect, 100 complete control, read-out: Plant response rating, Kochia
# [15] = post-emergence, Postemergence, 0 to 100 scale (0 no effect, 100 complete control)
# [16] = pre-emergence, Preemergence, 0 to 100 scale (0 no effect, 100 complete control)
# [17] = post-emergence, postemergence, 0 to 100 scale, 0 no effect, 100 complete control
# [18] = pre-emergence, Preemergence, 0 to 100 scale where 0 is no effect and 100 is complete control
smiles,measurement,setting,value
"FC(F)c1cc(-c2ccccc2Oc2ncc(Cl)cn2)no1 [Compound 35, 5-chloro-2-[2-[5-(difluoromethyl)-3-isoxazolyl]phenoxy]pyrimidine]","Plant response rating (scale 0 to 100), Oat, Wild",wild oat (Avena fatua); 8 g ai/ha,5
same,pest or weed control at 16 g/ha,"wild oat (Avena fatua); Avena fatua, post-emergence, 16 g ai/ha, scale 0 to 100 (0 no effect, 100 complete control), read-out: Oat, Wild plant response rating",10%
same,pest or weed control at 31 g/ha,wild oat (Avena fatua); [9],40%
same,pest or weed control at 62 g/ha,wild oat (Avena fatua); [10],45%
same,"Plant response rating (scale 0 to 100), Chickweed",[1]; 8 g ai/ha,50
same,pest or weed control at 16 g/ha,"[1]; Stellaria media, post-emergence, 16 g ai/ha, scale 0 to 100 (0 no effect, 100 complete control), read-out: Chickweed plant response rating",85%
same,pest or weed control at 31 g/ha,[1]; [11],85%
same,pest or weed control at 62 g/ha,[1]; [12],100%
same,"Plant response rating (scale 0 to 100), Kochia",kochia (Kochia scoparia); 8 g ai/ha,95
same,pest or weed control at 16 g/ha,"kochia (Kochia scoparia); Bassia scoparia, post-emergence, 16 g ai/ha, scale 0 to 100 (0 no effect, 100 complete control), read-out: Kochia plant response rating",100%
same,pest or weed control at 31 g/ha,kochia (Kochia scoparia); [13],100%
same,pest or weed control at 62 g/ha,kochia (Kochia scoparia); [14],100%
same,pest or weed control at 250 g/ha,[2],100%
same,pest or weed control at 250 g/ha,[3],100%
same,pest or weed control at 250 g/ha,[4],65%
same,plant injury at 250 g/ha,rice (Oryza sativa),80%
same,pest or weed control at 1000 g/ha,[5]; [15],100%
same,pest or weed control at 1000 g/ha,[5]; [16],100%
same,"Corn plant response rating (crop injury, 0 = no effect, 100 = complete kill) at 1000 g/ha",corn (Zea mays); [15],90%
same,"Corn plant response rating (crop injury, 0 = no effect, 100 = complete kill) at 1000 g/ha",corn (Zea mays); [16],30%
same,pest or weed control at 1000 g/ha,[6]; [15],100%
same,pest or weed control at 1000 g/ha,[6]; [16],10%
same,pest or weed control at 1000 g/ha,[7]; [15],90%
same,pest or weed control at 1000 g/ha,[7]; [16],100%
same,plant injury at 1000 g/ha,[8]; [15],80%
same,plant injury at 1000 g/ha,[8]; [16],60%
"FC(F)c1cc(-c2ccccc2Oc2ncc(Br)cn2)no1 [Compound 62, 5-bromo-2-[2-[5-(difluoromethyl)-3-isoxazolyl]phenoxy]pyrimidine]",pest or weed control at 31 g/ha,wild oat (Avena fatua); [9],30%
same,pest or weed control at 62 g/ha,wild oat (Avena fatua); [10],40%
same,pest or weed control at 125 g/ha,"wild oat (Avena fatua); Avena fatua, post-emergence, 125 g ai/ha, scale 0 to 100, 0 no effect, 100 complete control, read-out: Plant response rating, Oat, Wild",50%
same,pest or weed control at 250 g/ha,"wild oat (Avena fatua); Avena fatua, post-emergence, 250 g ai/ha, scale 0 to 100, 0 no effect, 100 complete control, read-out: Plant response rating, Oat, Wild",60%
same,pest or weed control at 31 g/ha,[1]; [11],70%
same,pest or weed control at 62 g/ha,[1]; [12],95%
same,pest or weed control at 125 g/ha,"[1]; Stellaria media, post-emergence, 125 g ai/ha, scale 0 to 100, 0 no effect, 100 complete control, read-out: Plant response rating, Chickweed",98%
same,pest or weed control at 250 g/ha,"[1]; Stellaria media, post-emergence, 250 g ai/ha, scale 0 to 100, 0 no effect, 100 complete control, read-out: Plant response rating, Chickweed",100%
same,pest or weed control at 31 g/ha,kochia (Kochia scoparia); [13],98%
same,pest or weed control at 62 g/ha,kochia (Kochia scoparia); [14],100%
same,pest or weed control at 125 g/ha,"kochia (Kochia scoparia); Bassia scoparia, post-emergence, 125 g ai/ha, scale 0 to 100, 0 no effect, 100 complete control, read-out: Plant response rating, Kochia",100%
same,pest or weed control at 250 g/ha,"kochia (Kochia scoparia); Bassia scoparia, post-emergence, 250 g ai/ha, scale 0 to 100, 0 no effect, 100 complete control, read-out: Plant response rating, Kochia",100%
same,pest or weed control at 250 g/ha,[2],90%
same,pest or weed control at 250 g/ha,[3],100%
same,pest or weed control at 250 g/ha,[4],35%
same,plant injury at 250 g/ha,rice (Oryza sativa),40%
same,pest or weed control at 125 g/ha,[5]; [17],90%
same,pest or weed control at 500 g/ha,[5]; [15],100%
same,pest or weed control at 125 g/ha,[5]; [18],80%
same,pest or weed control at 500 g/ha,[5]; [18],100%
same,"Corn plant response rating (crop injury, 0 = no effect, 100 = complete kill) at 125 g/ha",corn (Zea mays); [17],10%
same,"Corn plant response rating (crop injury, 0 = no effect, 100 = complete kill) at 500 g/ha",corn (Zea mays); [15],50%
same,"Corn plant response rating (crop injury, 0 = no effect, 100 = complete kill) at 125 g/ha",corn (Zea mays); [18],0%
same,"Corn plant response rating (crop injury, 0 = no effect, 100 = complete kill) at 500 g/ha",corn (Zea mays); [18],20%
same,pest or weed control at 125 g/ha,[6]; [17],100%
same,pest or weed control at 500 g/ha,[6]; [15],100%
same,pest or weed control at 125 g/ha,[6]; [18],100%
same,pest or weed control at 500 g/ha,[6]; [18],100%
same,pest or weed control at 125 g/ha,[7]; [17],80%
same,pest or weed control at 500 g/ha,[7]; [15],90%
same,pest or weed control at 125 g/ha,[7]; [18],100%
same,pest or weed control at 500 g/ha,[7]; [18],100%
same,plant injury at 125 g/ha,[8]; [17],0%
same,plant injury at 500 g/ha,[8]; [15],30%
same,plant injury at 125 g/ha,[8]; [18],20%
same,plant injury at 500 g/ha,[8]; [18],30%

# — patent US10131652B2, “Pyrimidinyloxy benzene derivatives as herbicides” (E. I. DU PONT DE NEMOURS AND COMPANY, priority 2014, dated 2018)
